{"source": "patent US10470991B2", "about": "“(R)-N-(adamantyl-2-yl)pyrrolidine-2-carboxamide derivatives for cosmetic use” (DSM IP ASSETS B.V., priority 2015, dated 2019)", "key": {"11β-HSD1 [1]": {"target": "T1, 11β-HSD1 (Homo sapiens, UniProt P28845)", "T1 sequence (P28845 whole entry)": "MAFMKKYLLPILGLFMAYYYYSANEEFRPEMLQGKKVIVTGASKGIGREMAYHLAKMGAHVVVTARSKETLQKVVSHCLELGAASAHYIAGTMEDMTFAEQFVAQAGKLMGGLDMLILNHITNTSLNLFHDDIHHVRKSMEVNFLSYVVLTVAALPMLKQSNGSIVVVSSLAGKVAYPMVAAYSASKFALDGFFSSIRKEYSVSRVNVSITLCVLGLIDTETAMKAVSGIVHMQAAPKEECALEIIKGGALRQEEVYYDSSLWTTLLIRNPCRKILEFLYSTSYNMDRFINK", "test": "Inhibition of 11-beta-hydroxysteroid dehydrogenase type 1, activity assay in cell lysates (HEK-293 HHH7 clone, radiolabeled cortisone, TLC)", "format": "biochemical", "set-up": "expressed in transfected cells; host or cells: HEK-293 (HHH7 clone), used as cell lysate", "details": "inhibitor 300 nM, 10 min 37° C.", "method": "The cells were then washed with phosphate-buffered saline, and centrifuged for 4 min at 150×g. After removal of the supernatants, cell pellets were snap frozen on dry ice and stored at −80° C. until further use.\nCell lysates were incubated for 10 min at 37° C. in TS2 buffer (100 mM NaCl, 1 mM EGTA, 1 mM EDTA, 1 mM MgCl2, 250 mM sucrose, 20 mM Tris-HCl, pH 7.4) in a final volume of 22.2 μL containing either solvent (0.1% DMSO) or the inhibitor at the respective concentration as indicated in table 3-1.\nReactions were stopped after 10 min by adding an excess of unlabeled cortisone and cortisol (1:1, 2 mM, in methanol). The steroids were separated by TLC, using methanol-chloroform (1:9) as solvent, followed by scintillation counting and calculation of substrate concentration."}, "11β-HSD1 [2]": {"target": "T1, 11β-HSD1", "test": "Human keratinocytes assay: 11β-HSD1 activity (cortisol level in supernatant after cortisone treatment)", "format": "cell-based", "set-up": "Primary human skin keratinocytes obtained from CellNTec advanced Cell Systems; host or cells: primary human skin keratinocytes", "details": "1000 nM cortisone, 48 h, primary human keratinocytes", "method": "Cell Culture: Primary human skin keratinocytes obtained from CellNTec advanced Cell Systems were maintained in CnT-PR medium at 37° C. in a humidified 5% CO2-air atmosphere. Cells were subcultured before reaching confluence.\nAssessment of 11β-HSD1 Activity: Human primary keratinocytes were pre-cultured in complete culture media (CnT-PR, CellNTec) to 90% of confluence. Subsequently cells were washed twice with PBS-buffer to remove remaining corticosteroids and media were exchanged to custom made hydrocortisone-free media. 48 h later cell culture supernatant was collected and cortisol levels were assessed with the Cortisol Parameter Assay Kit (R&D Systems) following the instructions of the protocol and using a Multiskan Ascent plate reader (Labsystems).\nCalculation: % remaining 11β-HSD1 activity=(cortisol-level with inhibitor/cortisol-level without inhibitor)*100%"}, "[3]": {"system": "Human skin from abdominal plastic surgery", "test": "Total dermal collagen after cortisone and cortisone/inhibitor treatment (human skin samples in culture, Picrosirius Red staining)", "format": "cell-based", "details": "for Dermal collagen (score, untreated sample set to 100%): topical daily", "method": "Human skin from abdominal plastic surgery was used. The skin samples were cut in pieces of ˜8×3 mm (Ø×thickness) and cultured up to day 6 in an air-liquid interface in a perforated ring of stainless steel in contact with a culture medium (modified Williams'E medium), while renewing the culture medium on day 3. Six skin specimens were used for each test sample. Each test sample (4 μl) was applied topically on top of each piece after cleaning of the surface with a cotton pad, which was subsequently covered with a 6 Ø mm delivery membrane, this procedure was repeated daily. After 6 days skin sections were stained with Picrosirius Red histochemical staining, that dyes collagen fibers in purple-red. The papillary dermis was selected for the analysis. The different colors of the pictures were separated by using a deconvolution matrix. After deconvolution only pink-reddish images are used. Within these images the evaluation of dermal collagen was performed by estimating both color intensity and distribution with IMAGE J (NIH) analysis software. Two slides of each skin sample were processed by image acquisition and related analysis (i.e. 12 images for each treatment)."}}, "note": "Structures can show the parent of a compound that is named as a salt.", "data": [{"smiles": "C[C@H](N)C(=O)NCC(=O)NCCN1CCC[C@@H]1C(=O)NC1C2CC3CC(C2)CC1C3", "note": "(stereo partly drawn) [(I-o), (R)-N-(adamantan-2-yl)-1-(2-(2-((S)-2-aminopropanamido)acetamido)ethyl)pyrrolidine-2-carboxamide bistrifluoroacetate]", "values": [{"measurement": "11β-HSD1 Remaining activity [% of control]", "setting": "11β-HSD1 [1]", "result": "43 % of control"}]}, {"smiles": "NCC(=O)N[C@@H](Cc1c[nH]c2ccccc12)C(=O)N1CCC[C@@H]1C(=O)NC1C2CC3CC(C2)CC1C3", "note": "(stereo partly drawn) [(I-q), (R)-N-(adamantan-2-yl)-1-(glycyl-L-tryptophyl)pyrrolidine-2-carboxamide trifluoroacetate]", "values": [{"measurement": "11β-HSD1 Remaining activity [% of control]", "setting": "11β-HSD1 [1]", "result": "69 % of control"}]}, {"smiles": "C[C@H](NC(=O)CN)C(=O)NCCN1CCC[C@@H]1C(=O)NC1C2CC3CC(C2)CC1C3", "note": "(stereo partly drawn) [(I-p), (R)-N-(adamantan-2-yl)-1-(2-((S)-2-(2-aminoacetamido)propanamido)ethyl)pyrrolidine-2-carboxamide bistrifluoroacetate]", "values": [{"measurement": "11β-HSD1 Remaining activity [% of control]", "setting": "11β-HSD1 [1]", "result": "57 % of control"}]}, {"smiles": "CCOc1ccc(C[C@H](N)C(=O)N2CCC[C@@H]2C(=O)NC2C3CC4CC(C3)CC2C4)cc1", "note": "(stereo partly drawn) [(I-k), (R)-N-(adamantan-2-yl)-1-((S)-2-amino-3-(4-ethoxyphenyl)propanoyl)pyrrolidine-2-carboxamide trifluoroacetate]", "values": [{"measurement": "11β-HSD1 Remaining activity [% of control]", "setting": "11β-HSD1 [1]", "result": "41 % of control"}, {"measurement": "remaining 11β-HSD1 activity", "setting": "11β-HSD1 [2]; 3.16 nM inhibitor", "result": 95, "unit": "%"}, {"measurement": "remaining 11β-HSD1 activity", "setting": "11β-HSD1 [2]; 10.00 nM inhibitor", "result": 100, "unit": "%"}, {"measurement": "remaining 11β-HSD1 activity", "setting": "11β-HSD1 [2]; 31.62 nM inhibitor", "result": 89, "unit": "%"}, {"measurement": "remaining 11β-HSD1 activity", "setting": "11β-HSD1 [2]; 100.00 nM inhibitor", "result": 80, "unit": "%"}, {"measurement": "remaining 11β-HSD1 activity", "setting": "11β-HSD1 [2]; 316.20 nM inhibitor", "result": 58, "unit": "%"}, {"measurement": "remaining 11β-HSD1 activity", "setting": "11β-HSD1 [2]; 1000.00 nM inhibitor", "result": 36, "unit": "%"}]}, {"smiles": "CC(=O)N[C@@H](Cc1ccc(F)cc1)C(=O)N1CCC[C@@H]1C(=O)NC1C2CC3CC(C2)CC1C3", "note": "(stereo partly drawn) [(I-h), (R)-1-((S)-2-acetamido-3-(4-fluorophenyl)propanoyl)-N-(adamantan-2-yl)-pyrrolidine-2-carboxamide]", "values": [{"measurement": "11β-HSD1 Remaining activity [% of control]", "setting": "11β-HSD1 [1]", "result": "37 % of control"}, {"measurement": "remaining 11β-HSD1 activity", "setting": "11β-HSD1 [2]; 3.16 nM inhibitor", "result": 100, "unit": "%"}, {"measurement": "remaining 11β-HSD1 activity", "setting": "11β-HSD1 [2]; 10.00 nM inhibitor", "result": 106, "unit": "%"}, {"measurement": "remaining 11β-HSD1 activity", "setting": "11β-HSD1 [2]; 31.62 nM inhibitor", "result": 89, "unit": "%"}, {"measurement": "remaining 11β-HSD1 activity", "setting": "11β-HSD1 [2]; 100.00 nM inhibitor", "result": 78, "unit": "%"}, {"measurement": "remaining 11β-HSD1 activity", "setting": "11β-HSD1 [2]; 316.20 nM inhibitor", "result": 52, "unit": "%"}, {"measurement": "remaining 11β-HSD1 activity", "setting": "11β-HSD1 [2]; 1000.00 nM inhibitor", "result": 25, "unit": "%"}]}, {"smiles": "CC(=O)N[C@@H](Cc1ccc(C#N)cc1)C(=O)N1CCC[C@@H]1C(=O)NC1C2CC3CC(C2)CC1C3", "note": "(stereo partly drawn) [(I-l), (R)-1-((S)-2-acetamido-3-(4-cyanophenyl)-propanoyl)-N-(adamantan-2-yl)pyrrolidine-2-carboxamide]", "values": [{"measurement": "Increase versus cortisone (#2)", "setting": "[3]; 10 μM in DMSO, day 6", "result": "+4%"}, {"measurement": "Dermal collagen (score, untreated sample set to 100%)", "setting": "[3]; 10 μM in DMSO, day 6, cortisone/inhibitor treatment", "result": 80, "unit": "%"}, {"measurement": "Increase versus cortisone (#2)", "setting": "[3]; 100 μM in DMSO, day 6", "result": "+17%"}, {"measurement": "Dermal collagen (score, untreated sample set to 100%)", "setting": "[3]; 100 μM in DMSO, day 6, cortisone/inhibitor treatment", "result": 90, "unit": "%"}, {"measurement": "Increase versus cortisone (#2)", "setting": "[3]; 200 μM in DMSO, day 6", "result": "+24%"}, {"measurement": "Dermal collagen (score, untreated sample set to 100%)", "setting": "[3]; 200 μM in DMSO, day 6, cortisone/inhibitor treatment", "result": 96, "unit": "%"}, {"measurement": "11β-HSD1 Remaining activity [% of control]", "setting": "11β-HSD1 [1]", "result": "24 % of control"}, {"measurement": "remaining 11β-HSD1 activity", "setting": "11β-HSD1 [2]; 3.16 nM inhibitor", "result": 94, "unit": "%"}, {"measurement": "remaining 11β-HSD1 activity", "setting": "11β-HSD1 [2]; 10.00 nM inhibitor", "result": 92, "unit": "%"}, {"measurement": "remaining 11β-HSD1 activity", "setting": "11β-HSD1 [2]; 31.62 nM inhibitor", "result": 76, "unit": "%"}, {"measurement": "remaining 11β-HSD1 activity", "setting": "11β-HSD1 [2]; 100.00 nM inhibitor", "result": 57, "unit": "%"}, {"measurement": "remaining 11β-HSD1 activity", "setting": "11β-HSD1 [2]; 316.20 nM inhibitor", "result": 28, "unit": "%"}, {"measurement": "remaining 11β-HSD1 activity", "setting": "11β-HSD1 [2]; 1000.00 nM inhibitor", "result": 12, "unit": "%"}]}, {"smiles": "C[C@]12CCC(=O)C=C1CC[C@@H]1[C@@H]2C(=O)C[C@@]2(C)[C@H]1CC[C@]2(O)C(=O)CO", "note": "[cortisone, reference compound]", "values": [{"measurement": "Dermal collagen (score, untreated sample set to 100%)", "setting": "[3]; cortisone 0.1 μM in DMSO alone, day 6, positive control for collagen inhibition", "result": 77, "unit": "%"}]}]}
